In patent publication US10479789B2, “Pyrido[1,2-A]pyrimidone analog, crystal form thereof, intermediate thereof and preparation method therefor” (Chia Tai Tianqing Pharmaceutical Group Co., Ltd., priority 2015, dated 2019) one finds IC50 data, which are given here for one compound.

A word on the IC50: it is the concentration that inhibits the measured activity by half.

Where only a bound is given, the exact number is not on record here.

Test [1] concerns MCF-7 cells. The experiment in a line: In vitro test of cell activity, insulin-stimulated MCF-7 cells, ELISA-One. It is filed as cell-based. Particulars: Homo sapiens, MCF7, 2 hours compound, insulin 30 minutes. Here is the method: 1) MCF-7 cells were inoculated at the density of 2.5×10^4 cells/well into 96-well plates (the culture medium used should be a complete culture medium containing 10% FBS).
2) On the next day, the medium in each well was drawn out.
3) Insulin was dissolved in a culture medium without serum, added to the cultured cells and incubated for 30 minutes, wherein the final concentration of insulin was 10 mg/mL.
4) A lysis solution was prepared according to the following method during the waiting period for the reaction: • a) Enhancer solution was removed from the refrigerator to melt in advance. • b) Enhancer solution was diluted 10-fold with the 5× Lysis Buffer to give a concentrated lysis solution. • c) The concentrated lysis solution was diluted 5-fold with double distilled water to give the lysis solution.
5) The medium in each well was completely removed and each well was quickly rinsed with PBS once.
6) 150 μL of the freshly prepared lysis solution was added to each well and shaken at room temperature for 10 min.
7) After confirming that all cells were detached, the lysis solution together with cell debris was transferred into a 1.5 mL tube. […]
9) The number of strips of ELISA-one micro-well plate that is required was calculated. […]
15) The corresponding ELISA-One filter group was assembled and used to read the fluorescence signal intensity.
(In general: ELISA stands for enzyme-linked immunosorbent assay.)

Test [2] concerns the target PI3Kβ (Homo sapiens, UniProt P42338). The experiment in a line: ADP-Glo Assay II, PI3Kβ. As to conditions: read-out: IC50 for inhibition of PI3Kβ activity. It is filed as biochemical. Here is the method: 1) The compound was diluted using Echo from Labcyte company, 50 nL of the compound was transferred into an assay plate, and centrifuged at a speed of 1000 rpm for 10 sec.
2) A kinase/lipid substrate mixed solution and a kinase reaction buffer/lipid substrate mixed solution were prepared; the kinase/lipid substrate mixed solution was added into columns 3-24 of the assay plate, 3 μL per well; the kinase reaction buffer/lipid substrate mixed solution was added into columns 1-2 of the assay plat, 3 μL per well; and the plate was centrifuged at a speed of 1000 rpm for 10 sec.
3) An ATP solution was prepared, and added into the assay plate, 2 μL per well; the plate was centrifuged at a speed of 1000 rpm for 10 sec, shaken and mixed in 2nd gear mode on a plate shaker for 1 min, further centrifuged at a speed of 1000 rpm for 10 sec, and incubated for 120 min at 23° C. […]
5) A kinase detection reagent was prepared, added into the assay plate, 10 μL per well; the plate was centrifuged at a speed of 1000 rpm for 10 sec, shaken and mixed in 2nd gear mode on a plate shaker for 1 min, further centrifuged at a speed of 1000 rpm for 10 sec, incubated for 30 min at 23° C.; and then read on the multi-marker detector Envision.
IC50 results were analyzed by XLfit5 (Formula 205) of IDBS company.
(In ADP-Glo the light output rises with the ADP produced.)

Sequence of PI3Kβ (P42338 whole entry): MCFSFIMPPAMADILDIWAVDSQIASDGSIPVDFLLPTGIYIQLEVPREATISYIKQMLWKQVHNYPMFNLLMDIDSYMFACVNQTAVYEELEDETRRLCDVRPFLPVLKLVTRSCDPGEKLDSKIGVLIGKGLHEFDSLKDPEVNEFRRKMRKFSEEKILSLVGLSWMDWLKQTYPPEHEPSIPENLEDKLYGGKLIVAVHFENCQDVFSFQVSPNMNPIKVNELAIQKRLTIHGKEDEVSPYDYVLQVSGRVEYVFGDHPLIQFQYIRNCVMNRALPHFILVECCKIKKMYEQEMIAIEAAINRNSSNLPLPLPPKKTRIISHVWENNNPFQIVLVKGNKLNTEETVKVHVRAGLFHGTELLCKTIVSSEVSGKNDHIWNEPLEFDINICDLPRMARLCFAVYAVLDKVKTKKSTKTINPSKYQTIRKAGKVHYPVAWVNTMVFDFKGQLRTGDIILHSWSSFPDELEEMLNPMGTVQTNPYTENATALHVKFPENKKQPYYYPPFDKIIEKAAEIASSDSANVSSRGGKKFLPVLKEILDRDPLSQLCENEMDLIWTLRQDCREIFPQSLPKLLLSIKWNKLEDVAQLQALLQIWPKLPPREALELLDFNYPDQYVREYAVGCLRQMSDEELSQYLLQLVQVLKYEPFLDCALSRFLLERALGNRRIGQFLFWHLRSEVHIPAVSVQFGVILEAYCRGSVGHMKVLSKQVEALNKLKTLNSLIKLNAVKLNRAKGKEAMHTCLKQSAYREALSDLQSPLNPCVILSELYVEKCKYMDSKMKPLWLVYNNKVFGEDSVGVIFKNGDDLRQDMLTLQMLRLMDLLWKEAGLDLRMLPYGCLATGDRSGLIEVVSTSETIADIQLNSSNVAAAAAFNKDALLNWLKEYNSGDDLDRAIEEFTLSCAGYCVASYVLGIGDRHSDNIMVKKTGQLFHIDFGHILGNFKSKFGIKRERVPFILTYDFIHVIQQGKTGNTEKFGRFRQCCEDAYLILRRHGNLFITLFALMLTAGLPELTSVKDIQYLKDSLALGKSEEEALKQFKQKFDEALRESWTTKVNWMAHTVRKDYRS
Sequence of PI3Kβ (P27986 whole entry partner): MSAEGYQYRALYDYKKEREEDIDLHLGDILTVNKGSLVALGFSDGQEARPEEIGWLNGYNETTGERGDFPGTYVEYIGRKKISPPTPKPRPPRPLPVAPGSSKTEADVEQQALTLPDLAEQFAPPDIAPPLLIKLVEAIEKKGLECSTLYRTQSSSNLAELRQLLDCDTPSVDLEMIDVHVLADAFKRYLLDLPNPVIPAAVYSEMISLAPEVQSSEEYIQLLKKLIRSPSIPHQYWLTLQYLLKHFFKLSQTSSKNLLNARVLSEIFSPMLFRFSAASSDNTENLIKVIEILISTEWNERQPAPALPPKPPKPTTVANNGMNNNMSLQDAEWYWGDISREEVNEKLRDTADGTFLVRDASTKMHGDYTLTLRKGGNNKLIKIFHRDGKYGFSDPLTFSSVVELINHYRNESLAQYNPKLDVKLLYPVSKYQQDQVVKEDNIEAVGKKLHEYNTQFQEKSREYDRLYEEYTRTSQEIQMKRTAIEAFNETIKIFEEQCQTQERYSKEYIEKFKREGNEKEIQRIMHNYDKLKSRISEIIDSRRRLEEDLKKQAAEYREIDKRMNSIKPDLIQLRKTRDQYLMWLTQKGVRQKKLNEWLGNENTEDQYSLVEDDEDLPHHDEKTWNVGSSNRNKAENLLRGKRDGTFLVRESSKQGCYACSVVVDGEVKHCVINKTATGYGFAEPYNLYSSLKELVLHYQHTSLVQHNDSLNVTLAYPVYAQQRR

With `COc1ncc(-c2ccc3ncc(OCCN(C)C)c(=O)n3c2)cc1NS(=O)(=O)c1ccc(F)cc1Cl` [Compound 1], the IC50 in test [1] is ≤ 50 nM; in test [2], 9.9 ± 2.7 nM.
